Results: patent US20220071932A1, “Compositions and Methods Against Stress-Induced Affective Disorders and Their Associated Symptoms” (The Trustees of Columbia University in the City of New York, priority 2019, published 2022)

Experiments:
[1] = tested on: 129S6/SvEv mice; test: Forced swim test (FST); immobility time; format: in vivo; settings: for p, Fisher's PLSD Saline vs. drug, FST Day 2 Immobility Time (sec): drug 1 week before stress; for p, Fisher's PLSD Saline vs. drug, FST Day 2 Immobility Time Min 1 (s) / p, Fisher's PLSD Saline vs. drug, FST Day 2 Immobility Time Min 2 (s) / p, Fisher's PLSD Saline vs. drug, FST Day 2 Immobility Time Min 3 (s) / p, Fisher's PLSD Saline vs. drug, FST Day 2 Immobility Time Min 4 (s) / p, Fisher's PLSD Saline vs. drug, FST Day 2 Immobility Time Min 5 (s) / p, Fisher's PLSD Saline vs. drug, FST Day 2 Immobility Time Min 6 (s) / p, Fisher's PLSD Saline vs. drug, FST Day 2 Immobility Time (s) / p, Immobility Time (s), FST Day 2, (R,S)-ketamine vs. FENM / p, Immobility Time (s), FST Day 2, Saline vs. drug: drug 5 minutes after stress; for p, Fisher's PLSD Saline vs. drug, FST Day 2 Immobility Time Min 1 (s) / p, Fisher's PLSD Saline vs. drug, FST Day 2 Immobility Time Min 2 (s) / p, Fisher's PLSD Saline vs. drug, FST Day 2 Immobility Time Min 3 (s) / p, Fisher's PLSD Saline vs. drug, FST Day 2 Immobility Time Min 4 (s) / p, Fisher's PLSD Saline vs. drug, FST Day 2 Immobility Time Min 5 (s) / p, Fisher's PLSD Saline vs. drug, FST Day 2 Immobility Time Min 6 (s): FIG. 2F; for p, Fisher's PLSD Saline vs. drug, FST Day 2 Immobility Time (s): FIG. 2G; for Forced Swim Test Day 1, Immobility Time Min 1 (sec), p (Fisher's LSD) / Forced Swim Test Day 1, Immobility Time Min 2 (sec), p (Fisher's LSD) / Forced Swim Test Day 1, Immobility Time Min 3 (sec), p (Fisher's LSD) / Forced Swim Test Day 1, Immobility Time Min 4 (sec), p (Fisher's LSD) / Forced Swim Test Day 1, Immobility Time Min 5 (sec), p (Fisher's LSD) / Forced Swim Test Day 1, Immobility Time Min 6 (sec), p (Fisher's LSD): FIG. 8H; for p, Immobility Time (s), FST Day 2, (R,S)-ketamine vs. FENM: (R,S)-ketamine 30 mg/kg vs. FENM 20 mg/kg
Procedure: The FST was administered as previously described (47). Briefly, mice were placed into clear plastic buckets 20 cm in diameter and 23 cm deep filled ⅔ of the way with 22° C. water. Mice were videotaped from the side for 6 min and were exposed to the swim test on 2 consecutive days Immobility time was scored by an experimenter blind to the experimental groups.

[2] = tested on: 129S6/SvEv mice; test: Anxiety-like behavior, summary of anxiety tests (OF, MB, EPM); format: in vivo; settings: for Behavior: Anxiety-like: Antidepressant (5 min after stress)
Procedure: Testing was performed as previously described (47). Briefly, the maze is a plus-cross-shaped apparatus consisting of four arms, two open and two enclosed by walls, linked by a central platform at a height of 50 cm from the floor. Mice were individually placed in the center of the maze facing an open arm and were allowed to explore the maze for 5 min. The time spent in and the number of entries into the open arms was used as an anxiety index. Videos were scored using ANY-maze behavior tracking software (Stoelting, Wood Dale, Ill.).
The OF assay was administered as previously described (47). Briefly, motor activity was quantified in 4 Plexiglas open field boxes 43×43 cm^2 (MED Associates, Georgia, Vt.). Two sets of 16 pulse-modulated infrared photobeams on opposite walls 2.5-cm apart recorded x-y ambulatory movements. Activity chambers were computer interfaced for data sampling at 100-ms resolution. The computer defined grid lines that dividing center and surround regions, with the center square consisting of four lines 11 cm from the wall.
The MB assay was conducted in a clean cage (10.5 in×5.5 in) containing soft pliable Beta Chip bedding (Northeastern Products Corp, Warrensburg, N.Y.). The cage contained 16 marbles set up in 4 rows of 4 across. Mice were given 30 minutes to explore and bury. At the end of the assay, the percentage of marbles buried was calculated.

[3] = (R,S)-ketamine (30 mg/kg) vs. FENM (20 mg/kg)
[4] = Fisher's LSD, Baseline cohort, FENM 20 mg/kg, FIG. 6D
[5] = non-stressed mice, FENM 20 mg/kg 1 hour before the start of the FST, vs saline

NC12CC3CC(C1)CC(CCF)(C3)C2 [FENM, 1-amino-3-fluoroethyl-adamantane]
p, Fisher's PLSD Saline vs. drug, FST Day 2 Immobility Time (sec) ([1]; 10 mg/kg, after ANOVA, FIG. 1G): 0.0307 | p, Fisher's PLSD Saline vs. drug, FST Day 2 Immobility Time (sec) ([1]; 10 mg/kg, after RMANOVA, FIG. 1F): 0.0085 | p, Fisher's PLSD Saline vs. drug, FST Day 2 Immobility Time Min 1 (s) ([1]; 10 mg/kg): 0.3105 | p, Fisher's PLSD Saline vs. drug, FST Day 2 Immobility Time Min 2 (s) ([1]; 10 mg/kg): 0.2275 | p, Fisher's PLSD Saline vs. drug, FST Day 2 Immobility Time Min 3 (s) ([1]; 10 mg/kg): 0.0949 | p, Fisher's PLSD Saline vs. drug, FST Day 2 Immobility Time Min 4 (s) ([1]; 10 mg/kg): 0.1329 | p, Fisher's PLSD Saline vs. drug, FST Day 2 Immobility Time Min 5 (s) ([1]; 10 mg/kg): 0.4763 | p, Fisher's PLSD Saline vs. drug, FST Day 2 Immobility Time Min 6 (s) ([1]; 10 mg/kg): 0.4453 | p, Fisher's PLSD Saline vs. drug, FST Day 2 Immobility Time (s) ([1]; 10 mg/kg, after ANOVA): 0.0204 | p, Fisher's PLSD Saline vs. drug, FST Day 2 Immobility Time (sec) ([1]; 20 mg/kg, after ANOVA, FIG. 1G): <0.0001 | p, Fisher's PLSD Saline vs. drug, FST Day 2 Immobility Time (sec) ([1]; 20 mg/kg, after RMANOVA, FIG. 1F): <0.0001 | p, Fisher's PLSD Saline vs. drug, FST Day 2 Immobility Time (sec) ([1]; 30 mg/kg, after ANOVA, FIG. 1G): 0.0005 | p, Fisher's PLSD Saline vs. drug, FST Day 2 Immobility Time (sec) ([1]; 30 mg/kg, after RMANOVA, FIG. 1F): 0.0003 | p, Fisher's PLSD Saline vs. drug, FST Day 2 Immobility Time Min 1 (s) ([1]; 30 mg/kg): 0.9988 | p, Fisher's PLSD Saline vs. drug, FST Day 2 Immobility Time Min 2 (s) ([1]; 30 mg/kg): <0.0001 | p, Fisher's PLSD Saline vs. drug, FST Day 2 Immobility Time Min 3 (s) ([1]; 30 mg/kg): 0.2804 | p, Fisher's PLSD Saline vs. drug, FST Day 2 Immobility Time Min 4 (s) ([1]; 30 mg/kg): 0.4890 | p, Fisher's PLSD Saline vs. drug, FST Day 2 Immobility Time Min 5 (s) ([1]; 30 mg/kg): 0.8673 | p, Fisher's PLSD Saline vs. drug, FST Day 2 Immobility Time Min 6 (s) ([1]; 30 mg/kg): 0.6591 | p, Fisher's PLSD Saline vs. drug, FST Day 2 Immobility Time (s) ([1]; 30 mg/kg, after ANOVA): 0.0210 | immobility time, day 2 of the FST ([1]; 5 minutes after CFC, re-exposure 1 day after training, (R,S)-ketamine 30 mg/kg, FENM 20 mg/kg, vs saline): significantly reduced immobility time | Forced Swim Test Day 1, Immobility Time Min 1 (sec), p (Fisher's LSD) [1, 3]: 0.2548 | Forced Swim Test Day 1, Immobility Time Min 2 (sec), p (Fisher's LSD) [1, 3]: 0.5009 | Forced Swim Test Day 1, Immobility Time Min 3 (sec), p (Fisher's LSD) [1, 3]: 0.4155 | Forced Swim Test Day 1, Immobility Time Min 4 (sec), p (Fisher's LSD) [1, 3]: 0.7067 | Forced Swim Test Day 1, Immobility Time Min 5 (sec), p (Fisher's LSD) [1, 3]: 0.3041 | Forced Swim Test Day 1, Immobility Time Min 6 (sec), p (Fisher's LSD) [1, 3]: 0.8903 | Forced Swim Test Day 2, Immobility Time (sec), p (Fisher's LSD) ([1]; (R,S)-ketamine (30 mg/kg) vs. FENM (20 mg/kg), after ANOVA, FIG. 8K): 0.0713 | Forced Swim Test Day 2, Immobility Time (sec), p (Fisher's LSD) ([1]; (R,S)-ketamine (30 mg/kg) vs. FENM (20 mg/kg), after RMANOVA, FIG. 8J): 0.0712 | Behavior: Depressive-like ([1]; Antidepressant (5 min after stress), dose 10 mg/kg): ↓ | Behavior: Depressive-like ([1]; Antidepressant (5 min after stress), dose 20 mg/kg): ↓ | Behavior: Depressive-like ([1]; Antidepressant (5 min after stress), dose 30 mg/kg): ↓ | Behavior: Depressive-like ([1]; Antidepressant (5 min after stress; extinction), dose 20 mg/kg): ↓ | p, Immobility Time Min 1 (sec), FST Day 2, Saline vs. FENM [1, 4]: 0.3330 | p, Immobility Time Min 2 (sec), FST Day 2, Saline vs. FENM [1, 4]: 0.4156 | p, Immobility Time Min 3 (sec), FST Day 2, Saline vs. FENM [1, 4]: 0.0346 | p, Immobility Time Min 4 (sec), FST Day 2, Saline vs. FENM [1, 4]: 0.2905 | p, Immobility Time Min 5 (sec), FST Day 2, Saline vs. FENM [1, 4]: 0.6448 | p, Immobility Time Min 6 (sec), FST Day 2, Saline vs. FENM [1, 4]: 0.5256 | p, Immobility Time (s), FST Day 2, (R,S)-ketamine vs. FENM ([1]; Fisher's PLSD after ANOVA, FIG. 3K): 0.0014 | p, Immobility Time (s), FST Day 2, Saline vs. drug ([1]; Fisher's PLSD after ANOVA, FENM 20 mg/kg, (R,S)-ketamine 30 mg/kg, FIG. 3K): 0.0097 | p, Immobility Time (s), FST Day 2, (R,S)-ketamine vs. FENM ([1]; Fisher's PLSD after RMANOVA, FIG. 3J): 0.0069 | p, Immobility Time (s), FST Day 2, Saline vs. drug ([1]; Fisher's PLSD after RMANOVA, FENM 20 mg/kg, (R,S)-ketamine 30 mg/kg, FIG. 3J): 0.0234 | Behavior: Depressive-like ([1]; Prophylactic (7 days before stress), dose 10 mg/kg): ↓ | Behavior: Depressive-like ([1]; Prophylactic (7 days before stress), dose 20 mg/kg): ↓ | Behavior: Depressive-like ([1]; Prophylactic (7 days before stress), dose 30 mg/kg): ↓ | Forced Swim Test Day 1, Immobility Time Min 1 (sec), p (Fisher's LSD) ([1]; Saline vs. FENM (20 mg/kg)): <0.0001 | Forced Swim Test Day 1, Immobility Time Min 2 (sec), p (Fisher's LSD) ([1]; Saline vs. FENM (20 mg/kg)): 0.0752 | Forced Swim Test Day 1, Immobility Time Min 3 (sec), p (Fisher's LSD) ([1]; Saline vs. FENM (20 mg/kg)): 0.0422 | Forced Swim Test Day 1, Immobility Time Min 4 (sec), p (Fisher's LSD) ([1]; Saline vs. FENM (20 mg/kg)): 0.4348 | Forced Swim Test Day 1, Immobility Time Min 5 (sec), p (Fisher's LSD) ([1]; Saline vs. FENM (20 mg/kg)): 0.8223 | Forced Swim Test Day 1, Immobility Time Min 6 (sec), p (Fisher's LSD) ([1]; Saline vs. FENM (20 mg/kg)): 0.0677 | Forced Swim Test Day 2, Immobility Time (sec), p (Fisher's LSD) ([1]; Saline vs. FENM (20 mg/kg), after ANOVA, FIG. 8K): 0.3636 | Forced Swim Test Day 2, Immobility Time (sec), p (Fisher's LSD) ([1]; Saline vs. FENM (20 mg/kg), after RMANOVA, FIG. 8J): 0.3085 | p, Fisher's PLSD Saline vs. drug, FST Day 2 Immobility Time Min 1 (s) ([1]; dose (20)): 0.0237 | p, Fisher's PLSD Saline vs. drug, FST Day 2 Immobility Time Min 2 (s) ([1]; dose (20)): 0.0034 | p, Fisher's PLSD Saline vs. drug, FST Day 2 Immobility Time Min 3 (s) ([1]; dose (20)): 0.0763 | p, Fisher's PLSD Saline vs. drug, FST Day 2 Immobility Time Min 4 (s) ([1]; dose (20)): 0.1586 | p, Fisher's PLSD Saline vs. drug, FST Day 2 Immobility Time Min 5 (s) ([1]; dose (20)): 0.0575 | p, Fisher's PLSD Saline vs. drug, FST Day 2 Immobility Time Min 6 (s) ([1]; dose (20)): 0.2137 | p, Fisher's PLSD Saline vs. drug, FST Day 2 Immobility Time (s) ([1]; dose (20), after ANOVA): 0.0024 | immobility, day 1 of the FST [1, 5]: comparable | immobility, day 2 of the FST [1, 5]: comparable | p, Immobility Time (sec), FST Day 1, Saline vs. FENM ([1]; t-test, Baseline cohort, FENM 20 mg/kg, FIG. 6C): 0.7086 | p, Immobility Time (sec), FST Day 2, Saline vs. FENM ([1]; t-test, Baseline cohort, FENM 20 mg/kg, FIG. 6E): 0.7847 | behavior in all anxiety tests, with the exception of the time spent in the center of the OF ([2]; 5 min after context re-exposure 1, (R,S)-ketamine 30 mg/kg, FENM 20 mg/kg, vs saline): did not alter behavior | behavior in all anxiety tests ([2]; 5 minutes prior to context re-exposure 1 (24 h after CFC), (R,S)-ketamine 30 mg/kg, FENM 20 mg/kg, vs saline): did not alter behavior | Behavior: Anxiety-like ([2]; dose 20 mg/kg): ↓ | Behavior: Anxiety-like ([2]; dose 30 mg/kg): ↓
